Measured values: US20120083522A1, “MODULATION OF INFLAMMATORY RESPONSES BY FACTOR XI” (Isis Pharmaceuitcals, inc., priority 2009, published 2012)
In the oligonucleotide strings, read from the 5' end, every base follows the letter of its sugar. An asterisk marks phosphorothioate; unmarked linkages are phosphodiester. Other units and linkages are bracketed, terminal groups are in braces. A string of capitals states the bases alone. e = 2'-O-(2-methoxyethyl) (MOE); [5mC] = 5-methylcytosine; d = 2'-deoxy (DNA)

Columns and labels:
human Factor XI mRNA [1] = test: Dose-dependent antisense inhibition in HepG2 cells, lipofectin (Example 2); type: cell-based; conditions: approximately 16 hours
Protocol: Cells were plated at a density of 10,000 cells per well and transfected using lipofectin reagent with 9.375 nM, 18.75 nM, 37.5 nM, 75 nM, and 150 nM concentrations of antisense oligonucleotide, as specified in Table 3. After a treatment period of approximately 16 hours, RNA was isolated from the cells and Factor XI mRNA levels were measured by quantitative real-time PCR. Human Factor XI primer probe set RTS 2966 (forward sequence: […], incorporated herein as SEQ ID NO: 3; reverse sequence: […], incorporated herein as SEQ ID NO: 4; probe sequence: TTGTCTACTGAAGCACACCCAAACAGGGAX, wherein X is the fluorophore, incorporated herein as SEQ ID NO: 5) was used to measure mRNA levels. Factor XI mRNA levels were adjusted according to total RNA content, as measured by RIBOGREEN®. Results are presented as percent inhibition of Factor XI, relative to untreated control cells.

human Factor XI mRNA [2] = test: Antisense inhibition in HepG2 cells by microwalk gapmers, 8,000 nM, electroporation (Example 14); type: cell-based; conditions: HepG2 cells, 8,000 nM
Procedure, shortened: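 HepG2 cells electroporated with 8,000 nM 2′-MOE phosphorothioate gapmer (5-10-5, 5-8-5 or 6-8-6). Factor XI mRNA measured after ~24 h by qRT-PCR, normalised to RIBOGREEN total RNA. Reported as percent inhibition versus untreated cells.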

human Factor XI mRNA [3] = test: Antisense inhibition in HepG2 cells by microwalk gapmers, 75 nM, lipofectin (Example 3); type: cell-based; conditions: HepG2 cells, 75 nM
Procedure, shortened: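 HepG2 cells (10,000 per well) were transfected with 75 nM gapmer using lipofectin and treated for about 24 h. Factor XI mRNA was quantified by real-time PCR, normalized to RiboGreen total RNA and expressed as percent inhibition versus untreated controls.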

human Factor XI mRNA [4] = test: Dose-dependent inhibition in HepG2 cells, lipofectin (Example 4); type: cell-based; conditions: 16 hours
Procedure, shortened: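 HepG2 cells at 10,000 per well were lipofectin-transfected with 9.375, 18.75, 37.5 or 75 nM antisense oligonucleotide for about 16 h. Factor XI mRNA was quantified by real-time PCR (primer probe set RTS 2966) and normalised to RIBOGREEN total RNA. Values are percent inhibition versus untreated cells.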

human Factor XI mRNA [5] = test: Dose-dependent inhibition in HepG2 cells, electroporation (Example 4); type: cell-based; conditions: 16 hours
Procedure, shortened: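 HepG2 cells electroporated with 0.7, 2.2, 6.7 or 20 μM antisense gapmer and harvested after ~16 h. Factor XI mRNA quantified by qRT-PCR (primer probe set RTS 2966), normalised to total RNA (RIBOGREEN). Reported as percent inhibition versus untreated control cells.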

[6] = Tolerability in Sprague-Dawley rats: hematology assays (Example 23); type: in vivo; parameters: RBC / WBC / Neutrophil / Lymphocyte / Platelets: unit not given here; conditions: blood
[7] = Tolerability in CD1 mice: body and organ weights (Example 21); type: in vivo; conditions: 50 mg/kg s.c. twice per week for 6 weeks, percentage of the body weight
Protocol: Body weight was measured at the onset of the study and subsequently twice per week. The body weights of the mice are presented in Table 87 and are expressed increase in grams over the PBS control weight taken before the start of treatment. Liver, spleen, and kidney weights were measured at the end of the study, and are also presented in Table 87 as percentage of the body weight.

[8] = Tolerability in CD1 mice: body and organ weight (Example 25); type: in vivo; conditions: 50 mg/kg s.c. twice per week for 6 weeks; for Kidney weight as percentage of body weight / Liver weight as percentage of body weight / Spleen weight as percentage of body weight: end of study

Row | Substance | RBC [6] | WBC [6] | Body weight (increase over PBS control weight before start of treatment) [8] [g] | Kidney weight as percentage of body weight [8] [%] | Liver weight as percentage of body weight [8] [%] | Spleen weight as percentage of body weight [8] [%] | also measured
1 | 412206 (antisense e[5mC]*e[5mC]*eG*eT*eG*d[5mC]*dA*dT*d[5mC]*dT*dT*dT*d[5mC]*dT*dT*eG*eG*e[5mC]*eA*eT) [compound 412206] | – | – | – | – | – | – | percent inhibition of Factor XI (human Factor XI mRNA [1]; 9.375 nM): 28%; percent inhibition of Factor XI (human Factor XI mRNA [1]; 18.75 nM): 44%; percent inhibition of Factor XI (human Factor XI mRNA [1]; 37.5 nM): 68%; percent inhibition of Factor XI (human Factor XI mRNA [1]; 75 nM): 80%; percent inhibition of Factor XI (human Factor XI mRNA [1]; 150 nM): 89%; Percent inhibition of human Factor XI mRNA levels (human Factor XI mRNA [2]): 91%; % inhibition of human Factor XI mRNA levels (human Factor XI mRNA [3]; oligonucleotides targeted to nucleobases 738 to 762 of SEQ ID NO: 1): 93%; percent inhibition of Factor XI mRNA, relative to untreated control cells (human Factor XI mRNA [4]; 9.375 nM): 24%; percent inhibition of Factor XI mRNA, relative to untreated control cells (human Factor XI mRNA [4]; 18.75 nM): 47%; percent inhibition of Factor XI mRNA, relative to untreated control cells (human Factor XI mRNA [4]; 37.5 nM): 69%; percent inhibition of Factor XI mRNA, relative to untreated control cells (human Factor XI mRNA [4]; 75 nM): 86%; percent inhibition of Factor XI mRNA, relative to untreated control cells (human Factor XI mRNA [5]; 0.7 μM): 22%; percent inhibition of Factor XI mRNA, relative to untreated control cells (human Factor XI mRNA [5]; 2.2 μM): 39%; percent inhibition of Factor XI mRNA, relative to untreated control cells (human Factor XI mRNA [5]; 6.7 μM): 81%; percent inhibition of Factor XI mRNA, relative to untreated control cells (human Factor XI mRNA [5]; 20 μM): 94%
2 | 412212 (antisense e[5mC]*e[5mC]*eG*eG*eG*dA*dT*dG*dA*dT*dG*dA*dG*dT*dG*e[5mC]*eA*eG*eA*eT) [compound 412212] | – | – | – | – | – | – | percent inhibition of Factor XI (human Factor XI mRNA [1]; 9.375 nM): 28%; percent inhibition of Factor XI (human Factor XI mRNA [1]; 18.75 nM): 45%; percent inhibition of Factor XI (human Factor XI mRNA [1]; 37.5 nM): 59%; percent inhibition of Factor XI (human Factor XI mRNA [1]; 75 nM): 73%; percent inhibition of Factor XI (human Factor XI mRNA [1]; 150 nM): 88%; % inhibition of human Factor XI mRNA levels (human Factor XI mRNA [3]; oligonucleotides targeted to nucleobases 1018 to 1042 of SEQ ID NO: 1): 89%
3 | 413476 (antisense eT*eT*eG*eA*eG*dA*dT*dT*d[5mC]*dT*dT*dT*dG*dG*dG*e[5mC]*e[5mC]*eA*eT*eT) [compound 413476] | – | – | – | – | – | – | percent inhibition of Factor XI (human Factor XI mRNA [1]; 9.375 nM): 26%; percent inhibition of Factor XI (human Factor XI mRNA [1]; 18.75 nM): 44%; percent inhibition of Factor XI (human Factor XI mRNA [1]; 37.5 nM): 64%; percent inhibition of Factor XI (human Factor XI mRNA [1]; 75 nM): 73%; percent inhibition of Factor XI (human Factor XI mRNA [1]; 150 nM): 82%; % inhibition of human Factor XI mRNA levels (human Factor XI mRNA [3]; oligonucleotides targeted to nucleobases 1062 to 1091 of SEQ ID NO: 1): 93%; percent inhibition of Factor XI mRNA, relative to untreated control cells (human Factor XI mRNA [4]; 9.375 nM): 24%; percent inhibition of Factor XI mRNA, relative to untreated control cells (human Factor XI mRNA [4]; 18.75 nM): 58%; percent inhibition of Factor XI mRNA, relative to untreated control cells (human Factor XI mRNA [4]; 37.5 nM): 62%; percent inhibition of Factor XI mRNA, relative to untreated control cells (human Factor XI mRNA [4]; 75 nM): 77%; percent inhibition of Factor XI mRNA, relative to untreated control cells (human Factor XI mRNA [5]; 0.7 μM): 40%; percent inhibition of Factor XI mRNA, relative to untreated control cells (human Factor XI mRNA [5]; 2.2 μM): 69%; percent inhibition of Factor XI mRNA, relative to untreated control cells (human Factor XI mRNA [5]; 6.7 μM): 88%; percent inhibition of Factor XI mRNA, relative to untreated control cells (human Factor XI mRNA [5]; 20 μM): 93%
4 | ISIS 416848: gapmer of Table 8 (antisense e[5mC]*eA*e[5mC]*eA*eG*dT*dT*dT*d[5mC]*dT*dG*dG*d[5mC]*dA*dG*eG*e[5mC]*e[5mC]*eT*e[5mC]) | 6.0 | 17 | – | – | – | – | –
5 | ISIS 416851: gapmer of Table 8 (antisense eG*eT*eG*e[5mC]*eA*d[5mC]*dA*dG*dT*dT*dT*d[5mC]*dT*dG*dG*e[5mC]*eA*eG*eG*e[5mC]) | 7.4 | 11 | – | – | – | – | –
6 | ISIS 416852: gapmer of Table 8 (antisense eT*eG*eG*eT*eG*d[5mC]*dA*d[5mC]*dA*dG*dT*dT*dT*d[5mC]*dT*eG*eG*e[5mC]*eA*eG) | 7.2 | 13 | – | – | – | – | –
7 | ISIS 416856: gapmer of Table 8 (antisense eG*eG*e[5mC]*eA*eT*dT*dG*dG*dT*dG*d[5mC]*dA*d[5mC]*dA*dG*eT*eT*eT*e[5mC]*eT) | 7.7 | 19 | – | – | – | – | Kidney weight [7]: 1.4%
8 | ISIS 416859: gapmer of Table 8 (antisense eG*eA*e[5mC]*eG*eG*d[5mC]*dA*dT*dT*dG*dG*dT*dG*d[5mC]*dA*e[5mC]*eA*eG*eT*eT) | 7.8 | 16 | – | – | – | – | –
9 | ISIS 416860: gapmer of Table 8 (antisense e[5mC]*eG*eG*eA*e[5mC]*dG*dG*d[5mC]*dA*dT*dT*dG*dG*dT*dG*e[5mC]*eA*e[5mC]*eA*eG) | 7.8 | 17 | – | – | – | – | –
10 | ISIS 416861: gapmer of Table 8 (antisense eG*e[5mC]*eG*eG*eA*d[5mC]*dG*dG*d[5mC]*dA*dT*dT*dG*dG*dT*eG*e[5mC]*eA*e[5mC]*eA) | 7.7 | 15 | – | – | – | – | –
11 | ISIS 416863: gapmer of Table 8 (antisense e[5mC]*eA*eG*e[5mC]*eG*dG*dA*d[5mC]*dG*dG*d[5mC]*dA*dT*dT*dG*eG*eT*eG*e[5mC]*eA) | 7.6 | 17 | – | – | – | – | –
12 | ISIS 416866: gapmer of Table 8 (antisense e[5mC]*eT*eG*eG*e[5mC]*dA*dG*d[5mC]*dG*dG*dA*d[5mC]*dG*dG*d[5mC]*eA*eT*eT*eG*eG) | 7.8 | 20 | – | – | – | – | –
13 | ISIS 416867: gapmer of Table 8 (antisense eA*e[5mC]*eT*eG*eG*d[5mC]*dA*dG*d[5mC]*dG*dG*dA*d[5mC]*dG*dG*e[5mC]*eA*eT*eT*eG) | 7.8 | 14 | – | – | – | – | –
14 | ISIS 445498: microwalk gapmer of Table 51 (antisense eG*eG*eT*eG*e[5mC]*eA*d[5mC]*dA*dG*dT*dT*dT*d[5mC]*dT*eG*eG*e[5mC]*eA*eG*eG) | – | – | 10 | 1.6 | 6 | 0.5 | –
15 | ISIS 445504: microwalk gapmer of Table 51 (antisense eG*eG*e[5mC]*eA*eT*eT*dG*dG*dT*dG*d[5mC]*dA*d[5mC]*dA*eG*eT*eT*eT*e[5mC]*eT) | – | – | 11 | 1.6 | 6 | 0.4 | –
16 | ISIS 445505: microwalk gapmer of Table 51 (antisense e[5mC]*eG*eG*e[5mC]*eA*eT*dT*dG*dG*dT*dG*d[5mC]*dA*d[5mC]*eA*eG*eT*eT*eT*e[5mC]) | – | – | 12 | 1.5 | 6 | 0.5 | –
17 | ISIS 445509: microwalk gapmer of Table 51 (antisense e[5mC]*eG*eG*eA*e[5mC]*eG*dG*d[5mC]*dA*dT*dT*dG*dG*dT*eG*e[5mC]*eA*e[5mC]*eA*eG) | – | – | 10 | 1.6 | 6 | 0.5 | –
18 | ISIS 445513: microwalk gapmer of Table 51 (antisense eG*e[5mC]*eA*eG*e[5mC]*eG*dG*dA*d[5mC]*dG*dG*d[5mC]*dA*dT*eT*eG*eG*eT*eG*e[5mC]) | – | – | 9 | 1.6 | 5 | 0.4 | –
19 | ISIS 445530: microwalk gapmer of Table 51 (antisense eG*e[5mC]*eA*eT*eT*dG*dG*dT*dG*d[5mC]*dA*d[5mC]*dA*eG*eT*eT*eT*e[5mC]) | – | – | 11 | 1.5 | 6 | 0.5 | –
20 | ISIS 445532: microwalk gapmer of Table 51 (antisense e[5mC]*eG*eG*e[5mC]*eA*dT*dT*dG*dG*dT*dG*d[5mC]*dA*e[5mC]*eA*eG*eT*eT) | – | – | 10 | 1.6 | 6 | 0.4 | –
